Consider 28 compounds from US11697646B2, “Triazole N-linked carbamoyl cyclohexyl acids as LPA antagonists” (BRISTOL-MYERS SQUIBB COMPANY, priority 2017, dated 2023).

Broadly, the IC50 is the concentration at which inhibition is half-maximal.

The test addresses T1, human LPA1 (Homo sapiens, UniProt Q92633).
T1 construct: expressed in transfected cells; host or cells: Chinese hamster ovary (CHO) cells
Kind of test: LPA1 functional antagonist assay (calcium flux). In kind it is cell-based. The following applies: CHO cells overexpressing human LPA1; calcium flux induced by 10 nM LPA; read-out: hLPA1 IC50. How it is done:
The effectiveness of compounds of the present invention as LPA1 inhibitors can be determined in an LPA1 functional antagonist assay as follows:
The cells were then equilibrated to room temperature for 30 minutes before the assay. […] IC50 values were determined by fitting data to a 4-parameter logistic equation (GraphPad Prism, San Diego Calif.).
A general note: A change in cytosolic calcium serves as a functional read-out for many receptors and channels.

Each structure is given as a SMILES string.

T1 sequence (Q92633 whole entry): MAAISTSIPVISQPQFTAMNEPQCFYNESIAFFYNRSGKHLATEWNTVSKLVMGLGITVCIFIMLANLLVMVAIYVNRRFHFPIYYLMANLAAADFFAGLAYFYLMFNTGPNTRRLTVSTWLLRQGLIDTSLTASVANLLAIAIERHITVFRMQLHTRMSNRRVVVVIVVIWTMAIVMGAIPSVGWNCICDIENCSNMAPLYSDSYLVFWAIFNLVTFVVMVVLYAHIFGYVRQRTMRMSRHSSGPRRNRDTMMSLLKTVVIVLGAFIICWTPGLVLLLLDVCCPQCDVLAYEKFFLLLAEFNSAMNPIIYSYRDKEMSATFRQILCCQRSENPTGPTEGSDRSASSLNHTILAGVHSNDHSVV

For `Cc1nc(-c2nnn(C)c2CNC(=O)OCC(C)(C)C)ccc1O[C@H]1CCC[C@H](C(=O)O)C1` [Example 22, (1S,3S)-3-((2-methyl-6-(1-methyl-5-((((neopentyloxy)carbonyl)amino)methyl)-1H-1,2,3-triazol-4-yl)pyridin-3-yl)oxy)cyclohexane-1-carboxylic acid], the IC50 worked out at 35 nM. Under `CCCCCOC(=O)NCc1c(-c2ccc(O[C@H]3CCC[C@H](C(=O)O)C3)c(C)n2)nnn1C` [Example 23] stands 3 nM; under `CCCOC(=O)NCc1c(-c2ccc(O[C@H]3CCC[C@H](C(=O)O)C3)c(C)n2)nnn1C` [Example 24, (1S,3S)-3-((2-methyl-6-(1-methyl-5-(((propoxycarbonyl)amino)methyl)-1H-1,2,3-triazol-4-yl)pyridin-3-yl)oxy)cyclohexane-1-carboxylic acid], 160 nM.

As for `Cc1nc(-c2nnn(C)c2CNC(=O)OCC(C)C)ccc1O[C@H]1CCC[C@H](C(=O)O)C1` [Example 25, (1S,3S)-3-((6-(5-(((isobutoxycarbonyl)amino)methyl)-1-methyl-1H-1,2,3-triazol-4-yl)-2-methyl-pyridin-3-yl)oxy)cyclohexane-1-carboxylic acid], the IC50 stood at 51 nM. For `Cn1nnc(-c2ccc(O[C@H]3CCC[C@H](C(=O)O)C3)cn2)c1CNC(=O)OCC(C)(C)C` [Example 26, (1S,3S)-3-((6-(1-methyl-5-((((neopentyloxy)carbonyl)amino)methyl)-1H-1,2,3-triazol-4-yl)pyridin-3-yl)oxy)cyclohexane-1-carboxylic acid] the value was 44 nM; for `CCCCCOC(=O)NCc1c(-c2ccc(O[C@H]3CCC[C@H](C(=O)O)C3)cn2)nnn1C` [Example 27, (1S,3S)-3-((6-(1-methyl-5-((((pentyloxy)carbonyl)amino)methyl)-1H-1,2,3-triazol-4-yl)pyridin-3-yl)oxy)cyclohexane-1-carboxylic acid], 16 nM; for `Cc1nc(-c2nnn(C)c2CNC(=O)OC2CCCC2)ccc1O[C@H]1CCC[C@H](C(=O)O)C1` [Example 28], 18 nM.

Turning to `CC(C)COC(=O)NCc1c(-c2ccc(O[C@H]3CCC[C@H](C(=O)O)C3)cn2)nnn1C` [Example 29, (1S,3S)-3-((6-(5-(((isobutoxycarbonyl)amino)methyl)-1-methyl-1H-1,2,3-triazol-4-yl)pyridin-3-yl)oxy)cyclohexane-1-carboxylic acid], the half-maximal inhibitory concentration (IC50) amounted to 179 nM. Under `Cc1nc(-c2nnn(C)c2CNC(=O)OC(C)(C)C)ccc1O[C@H]1CCC[C@H](C(=O)O)C1` [Example 30, (1S,3S)-3-((6-(5-(((tert-butoxycarbonyl)amino)methyl)-1-methyl-1H-1,2,3-triazol-4-yl)-2-methylpyridin-3-yl)oxy)cyclohexane-1-carboxylic acid] stands 120 nM. In the case of `Cc1nc(-c2nnn(C)c2CNC(=O)OCC2CCC2)ccc1O[C@H]1CCC[C@H](C(=O)O)C1` [Example 33, (1S,3S)-3-((6-(5-((((cyclobutylmethoxy)carbonyl)amino)methyl)-1-methyl-1H-1,2,3-triazol-4-yl)-2-methylpyridin-3-yl)oxy)cyclohexane-1-carboxylic acid], the IC50 was 11 nM. Under `Cc1nc(-c2nnn(C)c2CN(C)C(=O)OCc2ccccc2)ccc1O[C@H]1CCC[C@H](C(=O)O)C1` [Example 35, (1S,3S)-3-((6-(5-((((benzyloxy)carbonyl)(methyl)amino)methyl)-1-methyl-1H-1,2,3-triazol-4-yl)-2-methylpyridin-3-yl)oxy)cyclohexanecarboxylic acid] stands 56 nM. For `CCCCOC(=O)N(C)Cc1c(-c2ccc(O[C@H]3CCC[C@H](C(=O)O)C3)c(C)n2)nnn1C` [Example 36, (1S,3S)-3-((6-(5-(((butoxycarbonyl)(methyl)amino)methyl)-1-methyl-1H-1,2,3-triazol-4-yl)-2-methyl-pyridin-3-yl)oxy)cyclohexane carboxylic acid] the value was 19 nM; for `Cc1nc(-c2nnn(C)c2CNC(=O)OCCC(C)(C)C)ccc1O[C@H]1CCC[C@H](C(=O)O)C1` [Example 37, (1S,3S)-3-((6-(5-((((3,3-dimethylbutoxy)carbonyl)amino)methyl)-1-methyl-1H-1,2,3-triazol-4-yl)-2-methylpyridin-3-yl)oxy)cyclohexanecarboxylic acid], 12 nM; for `Cc1nc(-c2nnn(C)c2CNC(=O)OCC2CC(C)(C)C2)ccc1O[C@H]1CCC[C@H](C(=O)O)C1` [Example 38, (1S,3S)-3-((6-(5-(((((3,3-dimethylcyclobutyl)methoxy)carbonyl)amino)methyl)-1-methyl-1H-1,2,3-triazol-4-yl)-2-methylpyridin-3-yl)oxy)cyclohexanecarboxylic acid], 19 nM. For `CCCCOC(=O)NCc1c(-c2ccc(O[C@H]3CCC[C@H](C(=O)O)C3)c(CC)n2)nnn1C` [Example 41, (1S,3S)-3-((6-(5-(((butoxycarbonyl)amino)methyl)-1-methyl-1H-1,2,3-triazol-4-yl)-2-ethylpyridin-3-yl)oxy)cyclohexane-1-carboxylic acid] the value was 8 nM; for `CCCOC(=O)NCc1c(-c2ccc(O[C@H]3CCC[C@H](C(=O)O)C3)c(CC)n2)nnn1C` [Example 42, (1S,3S)-3-((2-ethyl-6-(1-methyl-5-(((propoxycarbonyl)amino)methyl)-1H-1,2,3-triazol-4-yl)pyridin-3-yl)oxy)cyclohexane-1-carboxylic acid], 788 nM. `CCc1nc(-c2nnn(C)c2CNC(=O)OCc2ccccc2)ccc1O[C@H]1CCC[C@H](C(=O)O)C1` [Example 43, (1S,3S)-3-((6-(5-((((benzyloxy)carbonyl)amino)methyl)-1-methyl-1H-1,2,3-triazol-4-yl)-2-ethylpyridin-3-yl)oxy)cyclohexne-1-carboxylic acid]: the IC50 stood at 8 nM. Under `CCc1nc(-c2nnn(C)c2CNC(=O)OC2CCCC2)ccc1O[C@H]1CCC[C@H](C(=O)O)C1` [Example 44, (1S,3S)-3-((6-(5-((((cyclopentyloxy)carbonyl)amino)methyl)-1-methyl-1H-1,2,3-triazol-4-yl)-2-ethylpyridin-3-yl)oxy)cyclo-hexane-1-carboxylic acid] stands 37 nM; under `CCc1nc(-c2nnn(C)c2CNC(=O)OCC(C)(C)C)ccc1O[C@H]1CCC[C@H](C(=O)O)C1` [Example 45, (1S,3S)-3-((2-ethyl-6-(1-methyl-5-((((neopentyloxy)carbonyl)amino)methyl)-1H-1,2,3-triazol-4-yl)pyridin-3-yl)oxy)cyclohexane-1-carboxylic acid], 94 nM; under `CCc1nc(-c2nnn(C)c2CNC(=O)OCC(C)C)ccc1O[C@H]1CCC[C@H](C(=O)O)C1` [Example 46, (1S,3S)-3-((2-ethyl-6-(5-(((isobutoxycarbonyl)amino)methyl)-1-methyl-1H-1,2,3-triazol-4-yl)pyridin-3-yl)oxy)cyclohexane-1-carboxylic acid], 120 nM. Under `Cc1nc(-c2nnn(C)c2CNC(=O)OCC2(F)CC2)ccc1O[C@H]1CCC[C@H](C(=O)O)C1` [Example 49, (1S,3S)-3-((6-(5-(((((1-fluorocyclopropyl)methoxy)carbonyl)amino)methyl)-1-methyl-1H-1,2,3-triazol-4-yl)-2-methylpyridin-3-yl)oxy)cyclohexane-1-carboxylic acid] stands 602 nM; under `CCCC1(COC(=O)NCc2c(-c3ccc(O[C@H]4CCC[C@H](C(=O)O)C4)cn3)nnn2C)CC1` [Example 50, (1S,3S)-3-((6-(1-methyl-5-(((((1-propylcyclopropyl)methoxy)carbonyl)amino)methyl)-1H-1,2,3-triazol-4-yl)pyridin-3-yl)oxy)cyclohexane-1-carboxylic acid], 28 nM. Consider `CCC1(COC(=O)NCc2c(-c3ccc(O[C@H]4CCC[C@H](C(=O)O)C4)cn3)nnn2C)CC1` [Example 51, (1S,3S)-3-((6-(5-(((((1-ethylcyclopropyl)methoxy)carbonyl)amino)methyl)-1-methyl-1H-1,2,3-triazol-4-yl)pyridin-3-yl)oxy)cyclohexane-1-carboxylic acid], for which the IC50 came out at 62 nM. In the case of `Cn1nnc(-c2ccc(O[C@H]3CCC[C@H](C(=O)O)C3)cn2)c1CNC(=O)OCC1(C)CC1` [Example 52, (1S,3S)-3-((6-(1-methyl-5-(((((1-methylcyclopropyl)methoxy)carbonyl)amino)methyl)-1H-1,2,3-triazol-4-yl)pyridin-3-yl)oxy)cyclohexane-1-carboxylic acid], the IC50 came out at 81 nM.

As to `COCCCOC(=O)NCc1c(-c2ccc(O[C@H]3CCC[C@H](C(=O)O)C3)c(C)n2)nnn1C` [Example 53, (1S,3S)-3-((6-(5-((((3-methoxypropoxy)carbonyl)amino)methyl)-1-methyl-1H-1,2,3-triazol-4-yl)-2-methylpyridin-3-yl)oxy)cyclohexane-1-carboxylic acid], the IC50 was 342 nM. As to `CCCC1(COC(=O)NCc2c(-c3ccc(O[C@H]4CCC[C@H](C(=O)O)C4)c(C)n3)nnn2C)CCC1` [Example 54], the IC50 stood at 58 nM.

Regarding `Cc1nc(-c2nnn(C)c2CNC(=O)OCCCF)ccc1O[C@H]1CCC[C@H](C(=O)O)C1` [Example 55, (1S,3S)-3-((6-(5-((((3-fluoropropoxy)carbonyl)amino)methyl)-1-methyl-1H-1,2,3-triazol-4-yl)-2-methylpyridin-3-yl)oxy)cyclohexane-1-carboxylic acid], the IC50 was found to be 411 nM. For `CCOCCOC(=O)NCc1c(-c2ccc(O[C@H]3CCC[C@H](C(=O)O)C3)c(C)n2)nnn1C` [Example 56, (1S,3S)-3-((6-(5-((((2-ethoxyethoxy)carbonyl)amino)methyl)-1-methyl-1H-1,2,3-triazol-4-yl)-2-methyl-pyridin-3-yl)oxy)cyclohexane-1-carboxylic acid] the value was 885 nM.
